Experiment [1] relates to Zymoseptoria tritici. Briefly: Leaf blotch of wheat (SEPTTR) disease control on wheat seedlings. The class given is in vivo. Further details: key to SEPTTR 1DP, HV activity at 100 ppm (% control rating) / SEPTTR 3DC, HV activity at 100 ppm (% control rating) / SEPTTR disease control, 1DP / SEPTTR disease control, 3DC / SEPTTR 1DP disease control rating, HV activity / SEPTTR 3DC disease control rating, HV activity / SEPTTR 3DC, LV activity at 125.1 g/H (% Control rating) / SEPTTR 1DP, LV activity at 125.1 g/H (% Control rating) / SEPTTR 1DP disease control rating, LV activity at 125.1 g/H / SEPTTR 3DC disease control rating, LV activity at 125.1 g/H / SEPTTR 3DC disease control rating, HV activity at 100 ppm / SEPTTR 1DP disease control rating, HV activity at 100 ppm / HV activity at 100 ppm SEPTTR 3DC (disease control rating) / HV activity at 100 ppm SEPTTR 1DP (disease control rating) / LV activity at 125.1 g/H SEPTTR 1DP (disease control rating) / LV activity at 125.1 g/H SEPTTR 3DC (disease control rating): A: > 80; B: ≤ 80; C: Not Tested; D: No Activity Observed in the Reported Assay. The conditions noted are these: for SEPTTR 1DP disease control rating, HV activity at 100 ppm / SEPTTR 3DC disease control rating, HV activity at 100 ppm: high volume application.

For experiment [2], the system named is Puccinia triticina. The experiment is described as follows: Wheat brown rust (PUCCRT) disease control on wheat seedlings. Conditions: for PUCCRT 1DP disease control rating, HV activity at 100 ppm / PUCCRT 3DC disease control rating, HV activity at 100 ppm: high volume application. It counts as in vivo.
The mark [3] stands for this setting: low volume application, 125.1 g/H, 1 Day Protectant.
Setting [4] is: low volume application, 125.1 g/H, 3 Day Curative.
Setting [5] is: low volume application, 125.1 g/H, 1 day protectant.
The mark [6] stands for this setting: low volume application, 125.1 g/H, 3 day curative.

On to `COc1ccnc(C(=O)NC(C)C(=O)OC(C)C(Oc2ccccc2)c2ccc(-c3ccccc3)cc2)c1O` (stereo not drawn) [Cmpd 833], for which the “SEPTTR 1DP disease control rating, HV activity at 100 ppm” value in experiment [1] (1 day protectant) is given as “A (> 80)”. Further, the “SEPTTR 3DC disease control rating, HV activity at 100 ppm” value in experiment [1] (3 day curative) is reported as “B (≤ 80)”. In addition, in experiment [2] (1 day protectant), the “PUCCRT 1DP disease control rating, HV activity at 100 ppm” value was “A (> 80)”. Also, the “PUCCRT 3DC disease control rating, HV activity at 100 ppm” value in experiment [2] (3 day curative) is “B (≤ 80)”.
Turning to `CC[C@H](NC(=O)c1nccc(OC)c1O)C(=O)O[C@@H](C)[C@H](Oc1ccccc1)C(C)C` [Cmpd 810], in experiment [1] (1 day protectant), the “SEPTTR 1DP disease control rating, HV activity at 100 ppm” value was “A (> 80)”. The “SEPTTR 3DC disease control rating, HV activity at 100 ppm” value in experiment [1] (3 day curative) was “A (> 80)”. For the same compound, the “PUCCRT 1DP disease control rating, HV activity at 100 ppm” value in experiment [2] (1 day protectant) was “A (> 80)”. In addition, the “PUCCRT 3DC disease control rating, HV activity at 100 ppm” value in experiment [2] (3 day curative) is “A (> 80)”.
With `COc1ccnc(C(=O)NC(C)C(=O)OC(C)COCC2CC2)c1OCOC(C)=O` (stereo not drawn) [Cmpd 527], the “SEPTTR 1DP, LV activity at 125.1 g/H (% Control rating)” value (“SEPTTR 1DP … (% Control rating)” below) in experiment [1] (setting [3]) is “D”. Besides, the “SEPTTR 3DC, LV activity at 125.1 g/H (% Control rating)” value (shortened to “SEPTTR 3DC … (% Control rating)”) in experiment [1] (setting [4]) is “A (> 80)”. Further, in experiment [2] (setting [3]), the “PUCCRT 1DP, LV activity at 125.1 g/H (% Control rating)” value (“PUCCRT 1DP … (% Control rating)” for short) is listed as “B (≤ 80)”. For the same compound, the “PUCCRT 3DC, LV activity at 125.1 g/H (% Control rating)” value (“PUCCRT 3DC … (% Control rating)” below) in experiment [2] (setting [4]) was “B (≤ 80)”.
As for `COc1cc(O[C@H](CC(C)C)[C@H](C)OC(=O)[C@H](C)NC(=O)c2nccc(OC)c2OC(C)=O)ccc1Cl` [Cmpd 1116], in experiment [1] (low volume application, 125.1 g/H, 1 Day Protectant, wheat leaf blotch), the “LV activity at 125.1 g/H SEPTTR 1DP (disease control rating)” value is listed as “A (> 80)”. Besides, the “LV activity at 125.1 g/H SEPTTR 3DC (disease control rating)” value in experiment [1] (low volume application, 125.1 g/H, 3 Day Curative, wheat leaf blotch) is listed as “A (> 80)”. Also, in experiment [2] (low volume application, 125.1 g/H, 1 Day Protectant, wheat brown rust), the “LV activity at 125.1 g/H PUCCRT 1DP (disease control rating)” value is reported as “A (> 80)”. Besides, the “LV activity at 125.1 g/H PUCCRT 3DC (disease control rating)” value in experiment [2] (low volume application, 125.1 g/H, 3 Day Curative, wheat brown rust) is “A (> 80)”.
As for `COc1cccc(O[C@H](C2CCCC2)[C@H](C)OC(=O)[C@H](C)NC(=O)c2nccc(OC)c2O)c1` [Cmpd 847], the “SEPTTR 1DP disease control rating, HV activity at 100 ppm” value in experiment [1] (1 day protectant) is listed as “B (≤ 80)”. For the same compound, the “SEPTTR 3DC disease control rating, HV activity at 100 ppm” value in experiment [1] (3 day curative) was “A (> 80)”. Further, the “PUCCRT 1DP disease control rating, HV activity at 100 ppm” value in experiment [2] (1 day protectant) was “A (> 80)”. In addition, the “PUCCRT 3DC disease control rating, HV activity at 100 ppm” value in experiment [2] (3 day curative) was “A (> 80)”.
Regarding `CCC(CC)[C@@H](Oc1cccc(-c2ccccc2)c1)[C@H](C)OC(=O)[C@H](C)NC(=O)c1nccc(OC)c1OC(C)=O` [Cmpd 606], in experiment [1] (setting [3]), the “SEPTTR 1DP … (% Control rating)” value is “A (> 80)”. In addition, the “SEPTTR 3DC … (% Control rating)” value in experiment [1] (setting [4]) is listed as “B (≤ 80)”. Besides, the “PUCCRT 1DP … (% Control rating)” value in experiment [2] (setting [3]) is “A (> 80)”. Further, the “PUCCRT 3DC … (% Control rating)” value in experiment [2] (setting [4]) is on record as “B (≤ 80)”.
With `COc1ccnc(C(=O)N[C@@H](C)C(=O)O[C@@H](C)[C@H](Oc2ccccc2)c2ccc(F)cc2)c1O` [Cmpd 848], the “SEPTTR 1DP disease control rating, HV activity at 100 ppm” value in experiment [1] (1 day protectant) was “B (≤ 80)”. The “SEPTTR 3DC disease control rating, HV activity at 100 ppm” value in experiment [1] (3 day curative) is “A (> 80)”. For the same compound, the “PUCCRT 1DP disease control rating, HV activity at 100 ppm” value in experiment [2] (1 day protectant) is reported as “A (> 80)”. In addition, the “PUCCRT 3DC disease control rating, HV activity at 100 ppm” value in experiment [2] (3 day curative) is on record as “B (≤ 80)”.
For `COc1ccnc(C(=O)N[C@@H](C)C(=O)O[C@@H](C)[C@H](OCC2CC2)C2CCCCC2)c1OCOC(C)=O` [Cmpd 881], the “SEPTTR 1DP disease control rating, LV activity at 125.1 g/H” value in experiment [1] (setting [5]) is recorded as “B (≤ 80)”. The “SEPTTR 3DC disease control rating, LV activity at 125.1 g/H” value in experiment [1] (setting [6]) is recorded as “B (≤ 80)”. In addition, the “PUCCRT 1DP disease control rating, LV activity at 125.1 g/H” value in experiment [2] (setting [5]) is on record as “A (> 80)”. For the same compound, in experiment [2] (setting [6]), the “PUCCRT 3DC disease control rating, LV activity at 125.1 g/H” value is on record as “A (> 80)”.
For the compound `COCC[C@H](Cc1ccc(F)cc1)[C@@H](OC(=O)C(C)C)[C@H](C)OC(=O)[C@H](C)NC(=O)c1nccc(OC)c1OCOC(C)=O` [Cmpd 499], the “SEPTTR 1DP … (% Control rating)” value in experiment [1] (setting [3]) is reported as “D”. The “SEPTTR 3DC … (% Control rating)” value in experiment [1] (setting [4]) is “B (≤ 80)”. Besides, the “PUCCRT 1DP … (% Control rating)” value in experiment [2] (setting [3]) is reported as “A (> 80)”. In addition, in experiment [2] (setting [4]), the “PUCCRT 3DC … (% Control rating)” value is “A (> 80)”.

The values are drawn from patent US20180000085A1, “USE OF PICOLINAMIDE COMPOUNDS WITH FUNGICIDAL ACTIVITY” (DOW AGROSCIENCES LLC, priority 2014, published 2018).
